Source: US12382888B2, “Compositions and methods for modulating immunity in plants” (Boyce Thompson Institute for Plant Research, Inc., priority 2013, dated 2025)
“Also recorded” adds a separate entry of the source.

Legend:
[1] = test system: Pseudomonas syringae pv. tomato DC3000 (Pst); assay: Resistance of Arabidopsis to Pseudomonas syringae pv. tomato DC3000 (bacterial growth); assay type: in vivo; settings: for protection against Pst DC3000: compared with 1 μM
[2] = test system: B. subtilis; assay: Disk-diffusion assay, B. subtilis; settings: up to 10 mM
[3] = test system: PDF1.2; assay: PDF1.2 expression in Arabidopsis leaves (semi-quantitative PCR / qRT-PCR)
[4] = test system: Pseudomonas syringae pv. tabaci; assay: Resistance of tobacco to Pseudomonas syringae pv. tabaci (bacterial growth); settings: for resistance to P. syringae pv tabaci: 2 dpi
[5] = test system: GRAS4, GST, β-1,3-glucanase, AOS2; assay: Defense response genes in tomato leaves after root pretreatment (qRT-PCR); assay type: in vivo, tomato (Solanum lycopersicum); settings: root treatment 10 nM
[6] = test system: PR-1; assay: PR-1 gene expression in barley leaves (qRT-PCR)
Procedure: Barley leaves were sprayed with the indicated concentrations of ascr #18 48 hours before inoculation with Blumeria graminis f. sp. hordei (Bgh). […] Leaves of barley plants were sprayed with water or ascr #18 (1 μM). Plants were inoculated with Bgh 48 hours post treatment. Leaves were collected at 16 hpi and used to extract RNA for qRT-PCR analysis. Data are average±SD (n=3, where n denotes the number of independent samples). (*P≤0.05; **P≤0.005; ***P≤0.0005, two-tailed t-test).
Leaves of barley plants were sprayed with various concentrations of ascr #18 or water (mock) for 48 hours. 48 hours post treatment plants were inoculated with Bgh. Leaves were collected at 16 hpi and used to extract RNA for qRT-PCR analysis.
For barley analyses, RNA extraction from infected barley leaves was performed with TRIzol (Invitrogen) following the manufacturer's instructions. Freshly extracted mRNA was used for cDNA synthesis using QuantiTect Reverse-Transcription kit (Qiagen). cDNA was stored at −20° C. For qRT-PCR, 50 ng of cDNA was used as template in the Applied Biosystems 7500 FAST real time PCR system. Amplifications were performed in 7.5 μL of SYBER green JumpStart Taq ReadyMix (Sigma-Aldrich) with 0.5 pmol oligonucleotides. […] Ubiquitin was used as an endogenous reference gene.

[7] = test system: MPK3 and MPK6; assay: MAPK activation phosphorylation in Arabidopsis leaves (immunoblot); assay type: in vivo, Arabidopsis thaliana; settings: leaf infiltration 1 μM; 10 minutes
[8] = test system: Aspergillus fumigatus; assay: Disk-diffusion assay, Aspergillus fumigatus; settings: up to 10 mM
[9] = test system: FRK1, PHI1, PR-4, AOS, GSTF6, LOX2; assay: Defense gene markers in Arabidopsis leaves after root pretreatment (qRT-PCR); assay type: in vivo, Arabidopsis thaliana; settings: root treatment 1 μM
[10] = test system: PR-1; assay: PR-1 expression in Arabidopsis leaves (semi-quantitative PCR / qRT-PCR)
[11] = test system: tomato suspension cells; assay type: cell-based
[12] = test system: E. coli; assay: Disk-diffusion assay, E. coli; settings: up to 10 mM
[13] = test system: Botrytis cinerea; assay: Resistance of tomato to Botrytis cinerea B05.01 (detached leaflet assay); assay type: in vivo; settings: tomato cv. M82; root immersion 0.01 μM 48 hours before
[14] = test system: M. incognita; assay: Arabidopsis root knot nematode infection assay; assay type: in vivo, Meloidogyne incognita
[15] = test system: EBF1, ERS1, ERS2, ERF1, ACO1, SAUR34, DRM2, AUX1, IAA6 and ARF19; assay: Ethylene- and auxin-responsive gene markers in Arabidopsis leaves after root pretreatment (qRT-PCR); assay type: in vivo, Arabidopsis thaliana; settings: root treatment 1 μM, 24 hpt
[16] = test system: PR-1; assay: PR-1 protein/transcript induction in tobacco leaves (immunoblot, RT-PCR)
Procedure: Four-weeks old tobacco plants were syringe-infiltrated with buffer, SA, or a mixture of SA (50 μM or 500 μM) and decreasing concentration of ascr #18 (10, 0.3, and 0.01 μM). PR-1 was assayed 48 hours after treatment by immunoblot using anti-PR-1 antibody.
PR-1 expression was analyzed 48 hp SA treatment.
To determine whether ascr #18 affects levels of the prototypic SA-responsive PR-1 gene/protein, tobacco plants were treated with varying concentrations of ascr #18 in the presence or absence of SA (FIG. 2).

[17] = test system: Pst DC3000; assay: Resistance of tomato to Pst DC3000 (bacterial growth); assay type: in vivo, Pseudomonas syringae pv. tomato
[18] = test system: PR-1, FRK1, PHI1, WRKY53; assay: Defense gene expression in Arabidopsis roots (qRT-PCR)
Procedure: FIG. 18C: Eight days old Arabidopsis seedlings were treated by root bathing using the indicated concentrations of ascr #18. Root samples were collected 6 hours after treatment for RNA extraction. Transcript levels of PHI1, FRK1 and WRKY53 were determined by qRT-PCR and normalized to endogenous UFP (AT4G01000) . *P≤0.05; **P≤0.005; ***P≤0.0005, two-tailed 1-test.
Roots of Arabidopsis seedlings were treated with water (CK) or with various ascr #18 concentrations for 48 hours. Roots were then collected and used to extract RNA for qRT-PCR analysis.
For the RNA analyses in roots, Arabidopsis roots were collected from 20-30 seedlings from each treatment and mRNA was isolated using the Dynabeads mRNA DIRECT Kit (Life Technologies). DNA contamination was removed by treatment with DNase I (Life Technologies). First-strand cDNA was synthesized from 50 ng of mRNA using ProtoScript II Reverse Transcriptase (NEB). […] All assays consisted of three technical replicates for each RNA sample. Data was analyzed using the iCycler iQ Real-Time PCR Detection System Software version 3.0a (Bio-Rad). The Arabidopsis UFP gene (AT4G01000) was used as an endogenous reference gene. PCR was started with an activation and DNA denaturation step (95° C. for 3 minutes), then followed by 40 cycles of 95° C. for 20 seconds and 60° C. for 40 seconds.

[19] = test system: Heterodera schachtii; assay: Arabidopsis cyst nematode infection assay; assay type: in vivo
[20] = test system: Blumeria graminis f. sp. hordei (Bgh); assay: Resistance of barley to Blumeria graminis f. sp. hordei (pustule count); settings: barley cv. Golden Promise; leaves sprayed 0.01 μM to 1 μM 48 hours before inoculation; 7 dpi
Procedure: Barley leaves were sprayed with the indicated concentrations of ascr #18 48 hours before inoculation with Blumeria graminis f. sp. hordei (Bgh). Photograph of barley leave segments infected with Bgh were taken at 7 days post inoculation (dpi). FIG. 15C: Provides the number of Bgh pustules counted at 7 dpi. […] Leaves of barley plants were sprayed with water or ascr #18 (1 μM). Plants were inoculated with Bgh 48 hours post treatment. […] Data are average±SD (n=3, where n denotes the number of independent samples). (*P≤0.05; **P≤0.005; ***P≤0.0005, two-tailed t-test).
For barley cv. Golden Promise, 7-days old seedlings were pretreated by spraying with different concentrations of ascr #18. Inoculation with Bgh was done 48 hours post treatment using a detached leaflet assay. Briefly 10 leaves from 5 different plants per treatment were cut and transferred to Petri dishes containing 1% water agar. Leaves were then inoculated with Bgh. Water was used as mock control. Pustules were counted 7 dpi.

[21] = leaf infiltration 0.01 μM or 0.3 μM, 24 hpt, qRT-PCR
[22] = leaf pretreatment by syringe infiltration, 0.01, 0.3, and 10 μM
[23] = root pretreatment 10 nM, 48 hours
[24] = root treatment of seedlings, various concentrations, 48 hours

CC1O[C@@H](O[C@@H](C)CCCCCCCCC(=O)O)C(O)C[C@H]1O (stereo in doubt) [ascr #18, (10R)-(3′R,5′R-dihydroxy-6′S-methyl-(2H)-tetrahydropyran-2-yloxy)-undecanoic Acid]
resistance to Pst, co-treatment ([1]; ascr #18 0.3 μM with SA 50 μM, leaf infiltration): further enhanced resistance; also recorded: strongly enhanced resistance
concentration for best/maximal protection against leaf infection (Pst; bacterial and viral pathogens) ([1]; in vivo): 1 µM
resistance to virulent Pst DC3000 (bacterial growth) ([1]; leaf syringe infiltration 0.3 μM 24 hours prior to inoculation, 3 dpi): enhanced resistance; also recorded: low level of protection
resistance to P. syringae pv tomato ([1]; root immersion 0.3 μM, 1 μM, or 5 μM 24 hours prior to inoculation): enhanced resistance
protection against Pst DC3000 ([1]; root immersion 0.3 μM): less effective
protection against Pst DC3000 (bacterial growth) ([1]; root immersion 1 μM, 24 hours before inoculation, 3 dpi): strong protection; also recorded: reduced growth
protection against Pst DC3000 ([1]; root immersion 5 μM): less effective
growth inhibition [2]: no growth inhibition
PDF1.2 expression, systemic ([3]; a subset of leaves treated): induced PDF1.2 expression in untreated, as well as treated, leaves
PDF1.2 expression ([3]; ascr #18 (0.01 or 0.3 μM), test leaves or roots treated, 24 hours): induces expression of the prototypic JA-responsive PDF1.2 gene; also recorded: altered
PDF1.2 transcripts [3, 21]: elevated; also recorded: Induction
PDF1.2 expression in Arabidopsis [3, 22]: +
resistance to P. syringae pv tabaci, SA added ([4]; SA 50 μM infiltrated 24 hours after ascr #18 0.01 μM pretreatment): no further enhancement of resistance
resistance to virulent P.t. (bacterial growth) ([4]; ascr #18 0.01 μM alone, leaves (infiltration) or roots (immersion) 24 hours before inoculation, 48 hpi): sufficient to enhance resistance; also recorded: enhanced resistance
virulent P.t. growth, both compounds ([4]; ascr #18 and SA provided simultaneously, vs single treatment): no greater reduction
resistance to P. syringae pv tabaci ([4]; leaf syringe infiltration 0.01 μM, inoculation 48 hours after): enhanced resistance
resistance to P. syringae pv tabaci ([4]; root immersion, ascr #18 0.01 μM or 0.03 μM): enhances resistance
resistance to P. syringae pv tabaci ([4]; spray 0.01 μM 48 hours before inoculation): enhances resistance
resistance to P. syringae pv tabaci, combination ([4]; spray ascr #18 0.01 μM combined with SA 50 μM): did not further increase resistance
β-1,3-glucanase transcript level in leaves ([5]; 24 hpt): enhanced levels
AOS2 transcript level in leaves ([5]; 48 hpt): significantly elevated
GRAS4 transcript level in leaves ([5]; 48 hpt): significantly elevated
GST transcript level in leaves ([5]; 48 hpt): significantly elevated
β-1,3-glucanase transcript level in leaves ([5]; 48 hpt): significantly elevated
PR-1 gene expression, with Bgh inoculation ([6]; 1 μM ascr #18 plus inoculation with Bgh, 16 hpi): further enhanced; also recorded: even higher levels of PR-1 expression
PR-1 gene expression ([6]; barley leaves sprayed, 1 μM, 48 hours): induces PR-1 gene expression; also recorded: induced PR-1 transcript accumulation; also recorded: induction of PR-1 gene
phosphorylation of MPK3 and MPK6 [7]: transient increase in the phosphorylation of both MAPKs; also recorded: Activation
growth inhibition [8]: no growth inhibition
FRK1 expression in leaves ([9]; 6 hpt): induced
AOS expression in leaves ([9]; 24 hpt): increased expression
GSTF6 expression in leaves ([9]; 24 hpt): increased expression
LOX2 expression in leaves ([9]; 24 hpt): increased expression
PHI1 expression in leaves ([9]; 24 hpt): induced
PR-4 expression in leaves ([9]; 24 hpt): increased expression
PR-1 expression ([10]; ascr #18 (0.01 or 0.3 μM) alone, test leaves or roots treated, 24 hours): induces PR-1 expression even in the absence of SA; also recorded: altered
SA-mediated PR-1 expression ([10]; ascr #18 co-applied with SA (50 μM) to leaves or applied through roots): suppresses SA-mediated PR-1 expression
PR-1 transcripts [10, 21]: elevated; also recorded: Induction
PR-1 expression in Arabidopsis [10, 22]: +
media alkalinization (pH of culture medium) [11]: induced media alkalinization in a dose-dependent manner
growth inhibition [12]: no growth inhibition
resistance to B. cinerea (lesion size 3 dpi) [13]: did not have a significant effect
concentration providing best protection against root infection ([14]; Arabidopsis, root knot nematodes): 10 nM
infection with root knot nematode M. incognita [14, 23]: significantly reduced infection
auxin or ET-regulated defense signaling ([15]; 10 genes): does not strongly affect auxin or ET-regulated defense signaling
SAUR34 expression ([15]; only one of 10 tested genes): enhanced
PR-1 accumulation in presence of SA ([16]; ascr #18 0.01 or 0.3 μM with SA 500 μM or 50 μM, leaf infiltration, vs SA only): enhanced PR-1 accumulation
PR-1 protein accumulation ([16]; tobacco leaves, ascr #18 alone 0.01, 0.3, or 10 μM, syringe infiltration, 48 hours): did not induce PR-1 protein accumulation
growth of Pst DC3000 in tomato leaves ([17]; higher concentrations than 10 nM): less effective
growth of Pst DC3000 in tomato leaves ([17]; tomato cv. M82, root treatment 10 nM 48 hours before, 4 dpi): significantly reduced the growth
root expression of FRK1 ([18]; 10 or 50 nM, within 6 hours): induced
root expression of PHI1 ([18]; 10 or 50 nM, within 6 hours): induced
root expression of WRKY53 ([18]; 10 or 50 nM, within 6 hours): induced
FRK1 expression in roots [18, 24]: induces; also recorded: induction
PR-1 expression in roots [18, 24]: induces; also recorded: induction
concentration providing best protection against root infection ([19]; Arabidopsis, cyst nematodes): 10 nM
resistance to H. schachtii (females counted) ([19]; media containing 50 nM or 600 nM, 19 dpi): enhances resistance
infection with cyst nematode H. schachtii [19, 23]: significantly reduced infection
resistance to Bgh (number of pustules) [20]: enhances basal resistance; also recorded: increased resistance to Bgh; also recorded: enhanced resistance
